From patent US12534450B2, “Methods and compositions for targeting PD-L1” (Aligos Therapeutics, Inc., priority 2021, dated 2026)

What follows are compounds tested against PD-1/PD-L1 PPI (Homo sapiens, UniProt Q9NZQ7) (assay: PDL1/PD1 Binding Assay). Settings: PDL1-6×His 0.3 nM, PD1-Fc-Avi-Biotin 2.5 nM, Acceptor/Donor beads, Envision reader.
In short: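 AlphaScreen competition: compound (1% DMSO) preincubated 30 min RT with PDL1-6×His (0.3 nM), then PD1-Fc-Avi-Biotin (2.5 nM) 30 min; anti-His acceptor and streptavidin donor beads (20 ug/mL each) added, 1 h each, dark up to overnight. Buffer 25 mM Hepes pH 7.4, 150 mM NaCl. IC50 by four-parameter fit.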

Chain of PD-1/PD-L1 PPI (Q9NZQ7 19-238 limits assumed): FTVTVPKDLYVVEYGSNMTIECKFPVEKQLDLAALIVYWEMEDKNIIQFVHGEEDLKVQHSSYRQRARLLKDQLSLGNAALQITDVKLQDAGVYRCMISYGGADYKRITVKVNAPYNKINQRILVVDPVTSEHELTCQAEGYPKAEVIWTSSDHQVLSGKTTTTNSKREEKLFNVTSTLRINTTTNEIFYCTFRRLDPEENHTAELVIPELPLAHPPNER

SMILES | IC50
COc1nc(-c2cccc(-c3cccc(NC(=O)c4cn(C)c(=O)n(C)c4=O)c3F)c2Cl)cc2c1[C@@H](NC[C@@H]1CCC(=O)N1)CC2 [Compound A-3] | ≤ 10 nM
COc1nc(-c2cccc(-c3cccc(NC(=O)c4cn(C)c(=O)n(C)c4=O)c3Cl)c2C)cc2c1[C@@H](NC[C@@H]1CCC(=O)N1)CC2 [Compound A-4] | ≤ 10 nM
COc1nc(-c2cccc(-c3cccc(NC(=O)c4cn(C)c(=O)n(C)c4=O)c3C)c2C)cc2c1[C@@H](NC[C@@H]1CCC(=O)N1)CC2 [Compound A-5] | ≤ 10 nM
COc1nc(-c2cccc(-c3cccc(NC(=O)c4cn(C)c(=O)n(C)c4=O)c3F)c2C)cc2c1[C@@H](NC[C@@H]1CCC(=O)N1)CC2 [Compound A-6] | ≤ 10 nM
COc1nc(-c2cccc(-c3cccc(NC(=O)c4cn(C)c(=O)n(C)c4=O)c3Cl)c2F)cc2c1[C@@H](NC[C@@H]1CCC(=O)N1)CC2 [Compound A-7] | ≤ 10 nM
COc1nc(-c2cccc(-c3cccc(NC(=O)c4cn(C)c(=O)n(C)c4=O)c3C)c2F)cc2c1[C@@H](NC[C@@H]1CCC(=O)N1)CC2 [Compound A-8] | ≤ 10 nM
COc1nc(-c2cccc(-c3cccc(NC(=O)c4cn(C)c(=O)n(C)c4=O)c3F)c2F)cc2c1[C@H](NC[C@@H]1CCC(=O)N1)CC2 [Compound A-17] | ≤ 10 nM
COc1nc(-c2cccc(-c3cccc(NC(=O)c4ccnn(C)c4=O)c3Cl)c2Cl)cc2c1[C@@H](NC[C@@H]1CCC(=O)N1)CC2 [Compound A-43] | ≤ 10 nM
COc1nc(-c2cccc(-c3cccc(NC(=O)c4ccnn(C)c4=O)c3Cl)c2Cl)cc2c1[C@@H](NC[C@@H]1CCC(=O)N1)CO2 [Compound A-44] | ≤ 10 nM
COc1nc(-c2cccc(-c3cccc(NC(=O)c4ccnn(C)c4=O)c3C)c2F)cc2c1[C@@H](NC[C@@H]1CCC(=O)N1)CC2 [Compound A-45] | ≤ 10 nM
COc1nc(-c2cccc(-c3cccc(NC(=O)c4ccnn(C)c4=O)c3C)c2Cl)cc2c1[C@@H](NC[C@@H]1CCC(=O)N1)CO2 [Compound A-46] | ≤ 10 nM
COc1nc(-c2cccc(-c3cccc(NC(=O)c4ccnn(C)c4=O)c3C)c2Cl)cc2c1[C@@H](NC[C@@H]1CCC(=O)N1)CC2 [Compound A-47] | ≤ 10 nM
COc1nc(-c2cccc(-c3cccc(NC(=O)c4ccn[nH]c4=O)c3Cl)c2Cl)cc2c1[C@@H](NC[C@@H]1CCC(=O)N1)CC2 [Compound A-51] | ≤ 10 nM
COc1nc(-c2cccc(-c3cccc(NC(=O)c4ccn[nH]c4=O)c3C)c2Cl)cc2c1[C@@H](NC[C@@H]1CCC(=O)N1)CC2 [Compound A-52] | ≤ 10 nM
COc1nc(-c2cccc(-c3cccc(NC(=O)c4cn(C)c(=O)n(C)c4=O)c3OC)c2Cl)cc2c1[C@@H](NC[C@@H]1CCC(=O)N1)CC2 [Compound A-53] | ≤ 10 nM
COc1nc(-c2cccc(-c3cccc(NC(=O)c4c[nH]c(=O)[nH]c4=O)c3C)c2Cl)cc2c1[C@@H](NC[C@@H]1CCC(=O)N1)CC2 [Compound A-54] | ≤ 10 nM
COc1nc(-c2cccc(-c3cccc(NC(=O)c4c[nH]c(=O)n(C)c4=O)c3C)c2Cl)cc2c1[C@@H](NC[C@@H]1CCC(=O)N1)CC2 [Compound A-55] | ≤ 10 nM
COc1nc(-c2cccc(-c3cccc(NC(=O)c4cn(C)c(=O)[nH]c4=O)c3C)c2Cl)cc2c1[C@@H](NC[C@@H]1CCC(=O)N1)CC2 [Compound A-56] | ≤ 10 nM
COc1nc(-c2cccc(-c3cccc(NC(=O)c4cn(C)c(=O)n(C)c4=O)c3C#N)c2Cl)cc2c1[C@@H](NC[C@@H]1CCC(=O)N1)CC2 [Compound A-57] | ≤ 10 nM
COc1nc(-c2cccc(-c3cccc(NC(=O)c4nn(C)c(=O)n(C)c4=O)c3C)c2Cl)cc2c1[C@@H](NC[C@@H]1CCC(=O)N1)CC2 [Compound A-58] | ≤ 10 nM
COc1nc(-c2cccc(-c3ccc(F)c(NC(=O)c4cn(C)c(=O)n(C)c4=O)c3C)c2Cl)cc2c1[C@@H](NC[C@@H]1CCC(=O)N1)CC2 [Compound A-59] | ≤ 10 nM
COc1nc(-c2cccc(-c3cc(F)cc(NC(=O)c4cn(C)c(=O)n(C)c4=O)c3C)c2Cl)cc2c1[C@@H](NC[C@@H]1CCC(=O)N1)CC2 [Compound A-60] | ≤ 10 nM

What follows are compounds tested on PD-1/PD-L1 interaction (assay: PD-1/PD-L1 NFAT Reporter Assay (co-culture of Jurkat T cells overexpressing PD-1 and PD-L1 expressing CHO cells)). Settings: Homo sapiens, Jurkat, 6 h, co-culture 6 hrs at 37° C., NFAT-mediated luciferase activity.
Type: cell-based
In short: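 Compounds added to CHO cells expressing surface anti-CD3 and PD-L1, then Jurkat cells with PD-1 and NFAT-driven luciferase seeded on top; co-culture 6 hrs at 37° C. Luminescence read after ONE-Glo addition, EC50 from dose-response fit.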

SMILES | EC50
COc1nc(-c2cccc(-c3cccc(NC(=O)c4cn(C)c(=O)n(C)c4=O)c3F)c2Cl)cc2c1[C@@H](NC[C@@H]1CCC(=O)N1)CC2 [Compound A-3] | ≤ 10 nM
COc1nc(-c2cccc(-c3cccc(NC(=O)c4cn(C)c(=O)n(C)c4=O)c3Cl)c2C)cc2c1[C@@H](NC[C@@H]1CCC(=O)N1)CC2 [Compound A-4] | ≤ 10 nM
COc1nc(-c2cccc(-c3cccc(NC(=O)c4cn(C)c(=O)n(C)c4=O)c3C)c2C)cc2c1[C@@H](NC[C@@H]1CCC(=O)N1)CC2 [Compound A-5] | ≤ 10 nM
COc1nc(-c2cccc(-c3cccc(NC(=O)c4cn(C)c(=O)n(C)c4=O)c3F)c2C)cc2c1[C@@H](NC[C@@H]1CCC(=O)N1)CC2 [Compound A-6] | 10 to 100 nM
COc1nc(-c2cccc(-c3cccc(NC(=O)c4cn(C)c(=O)n(C)c4=O)c3Cl)c2F)cc2c1[C@@H](NC[C@@H]1CCC(=O)N1)CC2 [Compound A-7] | ≤ 10 nM
COc1nc(-c2cccc(-c3cccc(NC(=O)c4cn(C)c(=O)n(C)c4=O)c3C)c2F)cc2c1[C@@H](NC[C@@H]1CCC(=O)N1)CC2 [Compound A-8] | ≤ 10 nM
COc1nc(-c2cccc(-c3cccc(NC(=O)c4cn(C)c(=O)n(C)c4=O)c3F)c2F)cc2c1[C@H](NC[C@@H]1CCC(=O)N1)CC2 [Compound A-17] | 100 to 1000 nM
COc1nc(-c2cccc(-c3cccc(NC(=O)c4ccnn(C)c4=O)c3Cl)c2Cl)cc2c1[C@@H](NC[C@@H]1CCC(=O)N1)CC2 [Compound A-43] | ≤ 10 nM
COc1nc(-c2cccc(-c3cccc(NC(=O)c4ccnn(C)c4=O)c3Cl)c2Cl)cc2c1[C@@H](NC[C@@H]1CCC(=O)N1)CO2 [Compound A-44] | 10 to 100 nM
COc1nc(-c2cccc(-c3cccc(NC(=O)c4ccnn(C)c4=O)c3C)c2F)cc2c1[C@@H](NC[C@@H]1CCC(=O)N1)CC2 [Compound A-45] | 10 to 100 nM
COc1nc(-c2cccc(-c3cccc(NC(=O)c4ccnn(C)c4=O)c3C)c2Cl)cc2c1[C@@H](NC[C@@H]1CCC(=O)N1)CO2 [Compound A-46] | ≤ 10 nM
COc1nc(-c2cccc(-c3cccc(NC(=O)c4ccnn(C)c4=O)c3C)c2Cl)cc2c1[C@@H](NC[C@@H]1CCC(=O)N1)CC2 [Compound A-47] | ≤ 10 nM
COc1nc(-c2cccc(-c3cccc(NC(=O)c4ccn[nH]c4=O)c3Cl)c2Cl)cc2c1[C@@H](NC[C@@H]1CCC(=O)N1)CC2 [Compound A-51] | ≤ 10 nM
COc1nc(-c2cccc(-c3cccc(NC(=O)c4ccn[nH]c4=O)c3C)c2Cl)cc2c1[C@@H](NC[C@@H]1CCC(=O)N1)CC2 [Compound A-52] | 10 to 100 nM
COc1nc(-c2cccc(-c3cccc(NC(=O)c4cn(C)c(=O)n(C)c4=O)c3OC)c2Cl)cc2c1[C@@H](NC[C@@H]1CCC(=O)N1)CC2 [Compound A-53] | 100 to 1000 nM
COc1nc(-c2cccc(-c3cccc(NC(=O)c4c[nH]c(=O)[nH]c4=O)c3C)c2Cl)cc2c1[C@@H](NC[C@@H]1CCC(=O)N1)CC2 [Compound A-54] | 10 to 100 nM
COc1nc(-c2cccc(-c3cccc(NC(=O)c4c[nH]c(=O)n(C)c4=O)c3C)c2Cl)cc2c1[C@@H](NC[C@@H]1CCC(=O)N1)CC2 [Compound A-55] | ≤ 10 nM
COc1nc(-c2cccc(-c3cccc(NC(=O)c4cn(C)c(=O)[nH]c4=O)c3C)c2Cl)cc2c1[C@@H](NC[C@@H]1CCC(=O)N1)CC2 [Compound A-56] | 10 to 100 nM
COc1nc(-c2cccc(-c3cccc(NC(=O)c4cn(C)c(=O)n(C)c4=O)c3C#N)c2Cl)cc2c1[C@@H](NC[C@@H]1CCC(=O)N1)CC2 [Compound A-57] | ≤ 10 nM
COc1nc(-c2cccc(-c3cccc(NC(=O)c4nn(C)c(=O)n(C)c4=O)c3C)c2Cl)cc2c1[C@@H](NC[C@@H]1CCC(=O)N1)CC2 [Compound A-58] | ≤ 10 nM
COc1nc(-c2cccc(-c3ccc(F)c(NC(=O)c4cn(C)c(=O)n(C)c4=O)c3C)c2Cl)cc2c1[C@@H](NC[C@@H]1CCC(=O)N1)CC2 [Compound A-59] | 10 to 100 nM
COc1nc(-c2cccc(-c3cc(F)cc(NC(=O)c4cn(C)c(=O)n(C)c4=O)c3C)c2Cl)cc2c1[C@@H](NC[C@@H]1CCC(=O)N1)CC2 [Compound A-60] | ≤ 10 nM
